For the assay, the target named is T1, androgen receptor (AR-LBD) (Rattus norvegicus, UniProt P15207).
T1 construct: 5 μL of 2×AR-LBD/Fluoromone AL Red Complex contained in the kit; purchased Invitrogen
T1 sequence (P15207 651-882 limits assumed): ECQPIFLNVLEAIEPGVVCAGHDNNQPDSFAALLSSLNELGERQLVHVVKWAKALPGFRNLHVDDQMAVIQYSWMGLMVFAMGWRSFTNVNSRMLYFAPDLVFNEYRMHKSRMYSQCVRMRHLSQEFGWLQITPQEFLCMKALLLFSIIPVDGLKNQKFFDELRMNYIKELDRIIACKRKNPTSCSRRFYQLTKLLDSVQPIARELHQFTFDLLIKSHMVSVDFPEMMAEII
In words: Evaluation of androgen receptor affinity (PolarScreen Androgen Receptor Competitor Assay Kit, Red; fluorescence polarization). The following applies: 22° C. for 5 hours, relative to binding rate of 1 μM DHT, read-out: AR affinity (pEC50) (converted). In a few lines: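 Fluorescence polarization read-out after 5 h at 22° C of compound with a red-fluorophore-labelled AR-LBD complex. Displacement is scaled against 1 μM DHT, and the log reciprocal of the concentration reaching half that effect gives pEC50 via four-parameter curve fitting.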
Background: Fluorescence polarisation rises when a labelled molecule tumbles more slowly, as on binding a larger partner.

For the molecule `Cc1sc(N(CCc2ccc(C#N)cc2)CC2CCCCC2)nc1C(=O)NS(=O)(=O)C(F)(F)F` [Compound 719, 2-[2-(4-cyanophenyl)ethyl-(cyclohexylmethyl)amino]-5-methyl-N-(trifluoromethylsulfonyl)thiazole-4-carboxamide], the EC50 was above 2000 nM.
As for `Cc1sc(N(CCc2ccc(C#N)cc2)CC2CCCCC2)nc1C(=O)NS(=O)(=O)Cc1cccc(F)c1` [Compound 720, 2-[2-(4-cyanophenyl)ethyl-(cyclohexylmethyl)amino]-N-[(3-fluorophenyl)methylsulfonyl]-5-methyl-thiazole-4-carboxamide], the figure is above 2000 nM.
As for `Cc1sc(N(CCc2ccc(C(N)=O)cc2)Cc2ccccc2)nc1C(=O)NS(C)(=O)=O` [Compound 737, 2-[benzyl-[2-(4-carbamoylphenyl)ethyl]amino]-5-methyl-N-methylsulfonyl-thiazole-4-carboxamide], the figure is above 2000 nM; as for `Cc1sc(N(CCc2ccncc2)Cc2ccccc2)nc1C(=O)NS(C)(=O)=O` [Compound 743, 2-[benzyl-[2-(4-pyridyl)ethyl]amino]-5-methyl-N-methylsulfonyl-thiazole-4-carboxamide], 631 nM.
In the case of `Cc1sc(N(Cc2ccccc2)c2cc3ccccc3cn2)nc1C(=O)NS(C)(=O)=O` [Compound 745, 2-[benzyl(3-isoquinolyl)amino]-5-methyl-N-methylsulfonyl-thiazole-4-carboxamide], the EC50 is above 2000 nM.
Take `Cc1sc(N(Cc2ccccc2)c2ccc3ccn(C)c3c2)nc1C(=O)NS(C)(=O)=O` [Compound 746, 2-[benzyl-(1-methylindol-6-yl)amino]-5-methyl-N-methylsulfonyl-thiazole-4-carboxamide]: the EC50 is above 2000 nM.
As for `COc1cccc(N(Cc2ccccc2)c2nc(C(=O)NS(C)(=O)=O)c(C)s2)c1` [Example 204, 2-(N-benzyl-3-methoxy-anilino)-5-methyl-N-methylsulfonyl-thiazole-4-carboxamide], the figure is above 2000 nM; as for `Cc1sc(N(Cc2ccccc2)c2cccc(O)c2)nc1C(=O)NS(C)(=O)=O` [Example 205, 2-(N-benzyl-3-hydroxy-anilino)-5-methyl-N-methylsulfonyl-thiazole-4-carboxamide], above 2000 nM.
For the molecule `Cc1sc(N(Cc2ccccc2)c2ccc(O)cc2)nc1C(=O)NS(C)(=O)=O` [Example 206, 2-(N-benzyl-4-hydroxy-anilino)-5-methyl-N-methylsulfonyl-thiazole-4-carboxamide], the EC50 was above 2000 nM.
With `Cc1sc(N(Cc2ccccc2)c2ccccc2O)nc1C(=O)NS(C)(=O)=O` [Example 207, 2-(N-benzyl-2-hydroxy-anilino)-5-methyl-N-methylsulfonyl-thiazole-4-carboxamide], the EC50 was above 2000 nM.
The figure for `Cc1sc(N(Cc2ccccc2)c2cccc(OCCOCc3ccccc3)c2)nc1C(=O)NS(C)(=O)=O` [Example 208, 2-[N-benzyl-3-(2-benzyloxyethoxy)anilino]-5-methyl-N-methylsulfonyl-thiazole-4-carboxamide] is above 2000 nM; for `Cc1sc(N(Cc2ccccc2)c2ccc(OCCOCc3ccccc3)cc2)nc1C(=O)NS(C)(=O)=O` [Example 209, 2-[N-benzyl-4-(2-benzyloxyethoxy)anilino]-5-methyl-N-methylsulfonyl-thiazole-4-carboxamide] it is above 2000 nM; for `Cc1sc(N(Cc2ccccc2)c2cccc(OCCO)c2)nc1C(=O)NS(C)(=O)=O` [Example 210, 2-[N-benzyl-3-(2-hydroxyethoxy)anilino]-5-methyl-N-methylsulfonyl-thiazole-4-carboxamide] it is above 2000 nM.
As for `Cc1sc(N(Cc2ccccc2)c2ccc(OCCO)cc2)nc1C(=O)NS(C)(=O)=O` [Example 211, 2-[N-benzyl-4-(2-hydroxyethoxy)anilino]-5-methyl-N-methylsulfonyl-thiazole-4-carboxamide], the figure is above 2000 nM; as for `Cc1sc(N(Cc2ccccc2)c2ccc(OCC(=O)O)cc2)nc1C(=O)NS(C)(=O)=O` [Example 212, 2-[4-[benzyl-[5-methyl-4-(methylsulfonylcarbamoyl)thiazol-2-yl]amino]phenoxy]acetic acid], above 2000 nM; as for `CNC(=O)COc1ccc(N(Cc2ccccc2)c2nc(C(=O)NS(C)(=O)=O)c(C)s2)cc1` [Example 213, 2-[N-benzyl-4-[2-(methylamino)-2-oxo-ethoxy]anilino]-5-methyl-N-methylsulfonyl-thiazole-4-carboxamide], above 2000 nM.
Regarding `Cc1sc(N(Cc2ccccc2)c2ccc(OCC(=O)N(C)C)cc2)nc1C(=O)NS(C)(=O)=O` [Example 214, 2-[N-benzyl-4-[2-(dimethylamino)-2-oxo-ethoxy]anilino]-5-methyl-N-methylsulfonyl-thiazole-4-carboxamide], the EC50 is above 2000 nM.
Consider `Cc1sc(N(Cc2ccccc2)c2cccc(C(F)(F)F)c2)nc1C(=O)NS(C)(=O)=O` [Example 224, 2-[N-benzyl-3-(trifluoromethyl)anilino]-5-methyl-N-methylsulfonyl-thiazole-4-carboxamide], for which the EC50 is 1260 nM.
Regarding `Cc1sc(N(Cc2ccccc2)c2cccc(C#N)c2)nc1C(=O)NS(C)(=O)=O` [Example 225, 2-(N-benzyl-3-cyano-anilino)-5-methyl-N-methylsulfonyl-thiazole-4-carboxamide], the EC50 is above 2000 nM.
As for `Cc1sc(N(Cc2ccccc2)c2ccc(CO)cc2)nc1C(=O)NS(C)(=O)=O` [Example 226, 2-[N-benzyl-4-(hydroxymethyl)anilino]-5-methyl-N-methylsulfonyl-thiazole-4-carboxamide], the figure is above 2000 nM; as for `Cc1sc(N(Cc2ccccc2)c2cccc3ccccc23)nc1C(=O)NS(C)(=O)=O` [Example 227, 2-[benzyl(1-naphthyl)amino]-5-methyl-N-methylsulfonyl-thiazole-4-carboxamide], above 2000 nM; as for `Cc1sc(N(Cc2ccccc2)c2ccccc2C(F)(F)F)nc1C(=O)NS(C)(=O)=O` [Example 228, 2-[N-benzyl-2-(trifluoromethyl)anilino]-5-methyl-N-methylsulfonyl-thiazole-4-carboxamide], above 2000 nM.
The figure for `Cc1sc(N(Cc2ccccc2)c2cccc(CO)c2)nc1C(=O)NS(C)(=O)=O` [Example 229, 2-[N-benzyl-3-(hydroxymethyl)anilino]-5-methyl-N-methylsulfonyl-thiazole-4-carboxamide] is above 2000 nM; for `Cc1sc(N(Cc2ccccc2)c2cccc(CCOCc3ccccc3)c2)nc1C(=O)NS(C)(=O)=O` [Example 231, 2-[N-benzyl-3-(2-benzyloxyethyl)anilino]-5-methyl-N-methylsulfonyl-thiazole-4-carboxamide] it is above 2000 nM.
As for `Cc1sc(N(Cc2ccccc2)c2ccccc2C#N)nc1C(=O)NS(C)(=O)=O` [Example 233, 2-(N-benzyl-2-cyano-anilino)-5-methyl-N-methylsulfonyl-thiazole-4-carboxamide], the figure is above 2000 nM; as for `Cc1sc(N(Cc2ccccc2)c2ccc(CCO)cc2)nc1C(=O)NS(C)(=O)=O` [Example 234, 2-[N-benzyl-4-(2-hydroxyethyl)anilino]-5-methyl-N-methylsulfonyl-thiazole-4-carboxamide], above 2000 nM.
On to `Cc1sc(N(Cc2ccccc2)c2ccc(CCOCc3ccccc3)cc2)nc1C(=O)NS(C)(=O)=O` [Example 235, 2-[N-benzyl-4-(2-benzyloxyethyl)anilino]-5-methyl-N-methylsulfonyl-thiazole-4-carboxamide], for which the EC50 was above 2000 nM.
As for `Cc1sc(N(Cc2ccccc2)c2ccnc3ccccc23)nc1C(=O)NS(C)(=O)=O` [Example 236, 2-[benzyl(4-quinolyl)amino]-5-methyl-N-methylsulfonyl-thiazole-4-carboxamide], the figure is above 2000 nM; as for `Cc1sc(N(Cc2ccccc2)c2ccc(C(F)(F)F)nn2)nc1C(=O)NS(C)(=O)=O` [Example 237, 2-[benzyl-[6-(trifluoromethyl)pyridazin-3-yl]amino]-5-methyl-N-methylsulfonyl-thiazole-4-carboxamide], 631 nM; as for `Cc1sc(N(Cc2ccccc2)c2cccnn2)nc1C(=O)NS(C)(=O)=O` [Example 238, 2-[benzyl(pyridazin-3-yl)amino]-5-methyl-N-methylsulfonyl-thiazole-4-carboxamide], above 2000 nM.
As to `COC(=O)c1ccc(N(Cc2ccccc2)c2nc(C(=O)NS(C)(=O)=O)c(C)s2)nn1` [Example 239, methyl 6-[benzyl-[5-methyl-4-(methylsulfonylcarbamoyl)thiazol-2-yl]amino]pyridazine-3-carboxylate], the EC50 is above 2000 nM.
As for `Cc1cccc(CN(c2ccc(C#N)cc2)c2nc(C(=O)NS(C)(=O)=O)c(Br)s2)c1` [Example 245, 5-bromo-2-[4-cyano-N-(m-tolylmethyl)anilino]-N-methylsulfonyl-thiazole-4-carboxamide], the figure is 79.4 nM.
The figure for `Cc1ccc(CN(c2ccc(C#N)cc2)c2nc(C(=O)NS(C)(=O)=O)c(Br)s2)cc1` [Example 246, 5-bromo-2-[4-cyano-N-(p-tolylmethyl)anilino]-N-methylsulfonyl-thiazole-4-carboxamide] is 39.8 nM; for `COc1ccccc1CN(c1ccc(C#N)cc1)c1nc(C(=O)NS(C)(=O)=O)c(Br)s1` [Example 249, 5-bromo-2-[4-cyano-N-[(2-methoxyphenyl)methyl]anilino]-N-methylsulfonyl-thiazole-4-carboxamide] it is 100 nM.

Source of the values: patent US10689354B2, “Aminoazole derivative” (Teijin Pharma Limited, priority 2015, dated 2020).
